Experimental data taken from patent publication US9169217B2, “Arylalkyl esters of 4-amino-6-(substituted phenyl)-picolinates and 6-amino-2-(substituted phenyl)-pyrimidinecarboxylates and their use as selective herbicides for crops” (Dow AgroSciences LLC, priority 2011, dated 2015).

Legend:
[1] = system: Scirpus juncoides ROXB. (Japanese bulrush); assay: In-water applied herbicidal activity in transplanted paddy rice (Example 17); format: in vivo; details: Schoenoplectiella juncoides, 504 h; rice cropping systems, in-water applied (paddy), 35 g ae/ha, 21 DAA; may represent multiple trials; read-out: Visual Injury (%) SCPJU
Summary of the method: (§1)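 Ester forms of test compounds, in acetone diluted with aqueous Agri-dex (final 1.25% v/v crop oil concentrate), were injected into the flood water of paddy pots holding weeds or rice at the 2nd–3rd leaf stage in mud (pH ~7.3–7.8). Visual injury versus untreated plants was scored 0–100% after 3 weeks in greenhouse (~29/26 °C). GR50/GR80 were derived by probit analysis.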

[2] = system: Echinochloa crus-galli (L.) P.BEAUV. (barnyardgrass); assay: as above; format: in vivo; details: Echinochloa crus-galli, 504 h; rice cropping systems, in-water applied (paddy), 35 g ae/ha, 21 DAA; may represent multiple trials; read-out: Visual Injury (%) ECHCG
Summary of the method: as §1

[3] = system: Echinochloa colonum (L.) LINK (junglerice); assay: Postemergence foliar-applied herbicidal activity in direct seeded rice (Example 16); format: in vivo; details: Echinochloa colona, post-emergence, 504 h, rice cropping systems, 17.5 g ae/ha, 21 DAA, may represent multiple trials, read-out: Visual Injury (%) ECHCO
Summary of the method: (§2)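 Greenhouse plants at 2nd–3rd true leaf stage (10–17 d, ~29/26 °C, 14-h photoperiod) sprayed postemergence with ester forms in acetone–DMSO plus 1.25% crop oil concentrate at 187 L/ha. Visual injury scored 0–100% versus untreated plants after 3 weeks; GR50/GR80 derived by probit analysis.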

[4] = system: Scirpus juncoides ROXB. (Japanese bulrush); assay: as above; format: in vivo; details: Schoenoplectiella juncoides, post-emergence, 504 h; rice cropping systems, foliar-applied, 17.5 g ae/ha, 21 DAA; may represent multiple trials; read-out: Visual Injury (%) SCPJU
Summary of the method: as §2

[5] = system: Sesbania exaltata (RAF.) CORY/RYDB. (hemp sesbania); assay: as above; format: in vivo; details: rice cropping systems, 17.5 g ae/ha, 21 DAA, may represent multiple trials
Summary of the method: as §2

[6] = system: Cyperus esculentus L. (yellow nutsedge); assay: as above; format: in vivo; details: rice cropping systems, 17.5 g ae/ha, 21 DAA, may represent multiple trials
Summary of the method: as §2

[7] = system: Aeschynomene sensitive SW./L. (sensitive jointvetch); assay: as above; format: in vivo; details: rice cropping systems, 17.5 g ae/ha, 21 DAA, may represent multiple trials
Summary of the method: as §2

[8] = system: Echinochloa crus-galli (L.) P.BEAUV. (barnyardgrass); assay: as above; format: in vivo; details: rice cropping systems, 17.5 g ae/ha, 21 DAA, may represent multiple trials
Summary of the method: as §2

[9] = system: Cyperus iria L. (rice flatsedge); assay: as above; format: in vivo; details: rice cropping systems, 17.5 g ae/ha, 21 DAA, may represent multiple trials
Summary of the method: as §2

Row | Structure (SMILES) | pest or weed control at 35 g/ha [1] | pest or weed control at 35 g/ha [2] | pest or weed control at 17.5 g/ha [3] | pest or weed control at 17.5 g/ha [4] | Visual Injury (%) SEBEX [5] | Visual Injury (%) CYPES [6] | Visual Injury (%) AESSE [7] | Visual Injury (%) ECHCG [8] | Visual Injury (%) CYPIR [9] | melting point
1 | CCOc1c(Cl)ccc(-c2nc(C(=O)OCc3ccccc3)c(Cl)c(N)c2F)c1F [Compound 41, benzyl 4-amino-3-chloro-6-(4-chloro-3-ethoxy-2-fluorophenyl)-5-fluoropicolinate] | 100% | 95% | 95% | 90% | 99% | 100% | 100% | 95% | 100% | 122 to 124 °C
2 | CCOc1c(Cl)ccc(-c2nc(C(=O)OC)c(Cl)c(N)c2F)c1F [Compound A, methyl 4-amino-3-chloro-6-(4-chloro-3-ethoxy-2-fluorophenyl)-5-fluoropicolinate] | 60% | 40% | 50% | 20% | 20% | 60% | 0% | 60% | 80% | 170 to 172 °C
